In patent US8563549B2, “Pyrimidine derivatives used as PI-3 kinase inhibitors” (Novartis AG, priority 2006, dated 2013):

Tests used:
[1] = system: Akt^Ser473 phosphorylation; test: In vivo target modulation (PK/PD) in A2780 xenograft tumors (Biological Method 3); set-up: species or system nu/nu mice
Description: A2780 ovarian cancer cells obtained from George Coukos (Fox Chase Cancer Center, University of Pennsylvania, Philadelphia, Pa.) were maintained in DMEM (Invitrogen, Inc.) supplemented with 10% heat-inactivated fetal bovine serum with 1% glutamine. Cells were propagated as recommended by the Dr. Coukos and colleagues. Female nu/nu mice (8-12 weeks old, 20-25 g, Charles River) were used for all in vivo pharmacology studies. The mice were housed and maintained in accordance with state and federal guidelines for the humane treatment and care of laboratory animals and received food and water ad libitum. Cancer cells were harvested from mid-log phase cultures using trypsin-EDTA (Invitrogen, Inc.). […] Tumor volumes were determined by using StudyDirector software.
For PK/PD dose-dependent studies, tumor-bearing mice were given a single oral dose of compound at different concentrations (10, 30, 60 and 100 mg/kg or vehicle) and tumors were resected at 10 hr or 24 hr after dosing. […] Supernatants were taken after centrifugation of tumor lysates at 300×g for 10 min at 4° C. and the protein concentration in each supernatant was determined by BCA (BioRad). […] The density of the positive band on the X-ray film was scanned and the target modulation for each compound was expressed as percentage inhibition by each compound compared to vehicle treatment. […]

A2780 tumor xenograft = test: Efficacy study in A2780 ovarian cancer xenograft model (Biological Method 3); format: in vivo, nu/nu mice; settings: oral
Description: A2780 ovarian cancer cells obtained from George Coukos (Fox Chase Cancer Center, University of Pennsylvania, Philadelphia, Pa.) were maintained in DMEM (Invitrogen, Inc.) supplemented with 10% heat-inactivated fetal bovine serum with 1% glutamine. Cells were propagated as recommended by the Dr. Coukos and colleagues. Female nu/nu mice (8-12 weeks old, 20-25 g, Charles River) were used for all in vivo pharmacology studies. The mice were housed and maintained in accordance with state and federal guidelines for the humane treatment and care of laboratory animals and received food and water ad libitum. Cancer cells were harvested from mid-log phase cultures using trypsin-EDTA (Invitrogen, Inc.). Five million cells were subcutaneously injected into the right flank of each mouse. Compound treatment was initiated when tumor size reached to 300-400 mm^3 for PK/PD studies and 200-300 mm^3 for efficacy studies. All compound treatment was administrated orally. Tumor volumes were determined by using StudyDirector software.
For efficacy studies, A2780 cancer cells (5×10^6 in 100 μl of DMEM culture medium) were injected subcutaneously into the right flank of each nu/nu mouse. […] Tumor growth and animal body weight was measured twice weekly with daily clinical observation to monitor potential toxicities related to the treatment. […]

SMILES	Duration of inhibition of Akt^Ser473 (>50% inhibition) [1] [h]	Antitumor activity (A2780 tumor xenograft; b.i.d., 30 mg/kg (FIG. 5))	Tumor growth inhibition (A2780 tumor xenograft; daily, 100 mg/kg)
Nc1cc(C(F)(F)F)c(-c2cc(N3CCOCC3)nc(N3CCOCC3)n2)cn1 [Compound 10]	> 10	significant antitumor activity	tumor growth stasis
Nc1ncc(-c2cc(OC3CCOCC3)nc(N3CCOCC3)n2)c(C(F)(F)F)n1 [Compound 66]	> 10	–	–
